Measurements published in ChEMBL document CHEMBL4177696, “Identification of a diverse synthetic abietane diterpenoid library and insight into the structure-activity relationships for antibacterial activity” (Bioorg Med Chem Lett, 2017).
Values after ≈ are worked out from the molar mass of the structure shown.

Legend:
Format in all cases: functional
[1] = test system: Pseudomonas fluorescens; experiment: Antibacterial activity against Pseudomonas fluorescens measured after 24 hrs
[2] = test system: Bacillus subtilis; experiment: Antibacterial activity against Bacillus subtilis measured after 24 hrs
[3] = test system: Staphylococcus aureus; experiment: Antibacterial activity against Staphylococcus aureus measured after 24 hrs
[4] = test system: Escherichia coli; experiment: Antibacterial activity against Escherichia coli measured after 24 hrs

Row | SMILES | MIC [1] [µg/mL] | MIC [2] [µg/mL] | MIC [3] [µg/mL] | MIC [4] [µg/mL]
1 | COC(=O)[C@]1(C)CCC[C@]2(C)c3ccc(C(C)C)c(NC(=O)Cn4cc(-c5cccc(NC(=O)OC(C)(C)C)c5)nn4)c3CC[C@@H]12 | 25 (≈ 39.7 µM) | 12.5 (≈ 19.8 µM) | 6.3 (≈ 10 µM) | 12.5 (≈ 19.8 µM)
2 | COC(=O)[C@]1(C)CCC[C@]2(C)c3ccc(C(C)C)c(NC(=O)Cn4cc(-c5ccc([N+](=O)[O-])cc5)nn4)c3CC[C@@H]12 | 12.5 (≈ 22.3 µM) | 50 (≈ 89.3 µM) | 25 (≈ 44.7 µM) | 75 (≈ 134 µM)
3 | COC(=O)[C@]1(C)CCC[C@]2(C)c3ccc(C(C)C)c(NC(=O)Cn4cc(-c5ccc6ccccc6c5)nn4)c3CC[C@@H]12 | 25 (≈ 44.3 µM) | 50 (≈ 88.5 µM) | 75 (≈ 133 µM) | 25 (≈ 44.3 µM)
4 | COC(=O)[C@]1(C)CCC[C@]2(C)c3ccc(C(C)C)c(NC(=O)Cn4cc(-c5cccc([N+](=O)[O-])c5)nn4)c3CC[C@@H]12 | 50 (≈ 89.3 µM) | 50 (≈ 89.3 µM) | 25 (≈ 44.7 µM) | 75 (≈ 134 µM)
5 | COC(=O)[C@]1(C)CCC[C@]2(C)c3ccc(C(C)C)c(NC(=O)Cn4cc(-c5ccccn5)nn4)c3CC[C@@H]12 | 12.5 (≈ 24.2 µM) | 12.5 (≈ 24.2 µM) | 25 (≈ 48.5 µM) | 12.5 (≈ 24.2 µM)
6 | COC(=O)[C@]1(C)CCC[C@]2(C)c3ccc(C(C)C)c(NC(=O)Cn4cc(-c5cc(OC)cc(OC)c5)nn4)c3CC[C@@H]12 | 75 (≈ 130 µM) | 100 (≈ 174 µM) | 25 (≈ 43.5 µM) | 75 (≈ 130 µM)
7 | COC(=O)[C@]1(C)CCC[C@]2(C)c3ccc(C(C)C)c(NC(=O)Cn4cc(-c5ccc(OC(F)(F)F)cc5)nn4)c3CC[C@@H]12 | 75 (≈ 125 µM) | 50 (≈ 83.5 µM) | 25 (≈ 41.8 µM) | 50 (≈ 83.5 µM)
8 | COC(=O)[C@]1(C)CCC[C@]2(C)c3ccc(C(C)C)c(NC(=O)Cn4cc(-c5ccc(-c6ccccc6)cc5)nn4)c3CC[C@@H]12 | 50 (≈ 84.6 µM) | 75 (≈ 127 µM) | 50 (≈ 84.6 µM) | 25 (≈ 42.3 µM)
9 | COC(=O)[C@]1(C)CCC[C@]2(C)c3ccc(C(C)C)c(NC(=O)Cn4cc(-c5ccc(C#N)cc5)nn4)c3CC[C@@H]12 | 25 (≈ 46.3 µM) | 12.5 (≈ 23.2 µM) | 25 (≈ 46.3 µM) | 12.5 (≈ 23.2 µM)
10 | CCCCCOc1ccc(-c2cn(CC(=O)Nc3c(C(C)C)ccc4c3CC[C@H]3[C@](C)(C(=O)OC)CCC[C@]43C)nn2)cc1 | 75 (≈ 125 µM) | 75 (≈ 125 µM) | 100 (≈ 166 µM) | 75 (≈ 125 µM)
11 | COC(=O)[C@]1(C)CCC[C@]2(C)c3ccc(C(C)C)c(NC(=O)Cn4cc(-c5cccc(Br)c5)nn4)c3CC[C@@H]12 | 12.5 (≈ 21.1 µM) | 25 (≈ 42.1 µM) | 25 (≈ 42.1 µM) | 12.5 (≈ 21.1 µM)
12 | COC(=O)c1ccc(-c2cn(CC(=O)Nc3c(C(C)C)ccc4c3CC[C@H]3[C@](C)(C(=O)OC)CCC[C@]43C)nn2)cc1 | 25 (≈ 43.7 µM) | 12.5 (≈ 21.8 µM) | 12.5 (≈ 21.8 µM) | 6.3 (≈ 11 µM)
13 | COC(=O)[C@]1(C)CCC[C@]2(C)c3ccc(C(C)C)c(NC(=O)Cn4cc(-c5ccc(OCc6ccccc6)cc5)nn4)c3CC[C@@H]12 | 75 (≈ 121 µM) | 50 (≈ 80.5 µM) | 50 (≈ 80.5 µM) | 75 (≈ 121 µM)
14 | COC(=O)[C@]1(C)CCC[C@]2(C)c3ccc(C(C)C)c(NC(=O)Cn4cc(-c5cccc(Cl)c5)nn4)c3CC[C@@H]12 | 25 (≈ 45.5 µM) | 12.5 (≈ 22.8 µM) | 50 (≈ 91.1 µM) | 12.5 (≈ 22.8 µM)
15 | COC(=O)[C@]1(C)CCC[C@]2(C)c3ccc(C(C)C)c(NC(=O)Cn4cc(-c5ccc(C(F)(F)F)cc5)nn4)c3CC[C@@H]12 | 25 (≈ 42.9 µM) | 12.5 (≈ 21.5 µM) | 25 (≈ 42.9 µM) | 12.5 (≈ 21.5 µM)
16 | COC(=O)[C@]1(C)CCC[C@]2(C)c3ccc(C(C)C)c(NC(=O)Cn4cc(-c5cc(Cl)cc(Cl)c5)nn4)c3CC[C@@H]12 | 50 (≈ 85.7 µM) | 25 (≈ 42.8 µM) | 25 (≈ 42.8 µM) | 25 (≈ 42.8 µM)
17 | COC(=O)[C@]1(C)CCC[C@]2(C)c3ccc(C(C)C)c(NC(=O)Cn4cc(-c5ccc(Br)cc5)nn4)c3CC[C@@H]12 | 6.3 (≈ 10.6 µM) | 12.5 (≈ 21.1 µM) | 25 (≈ 42.1 µM) | 25 (≈ 42.1 µM)
